Here are results for three molecules from article PMC11284788, “NN1213 – A Potent, Long-Acting, and Selective Analog of Human Amylin” (Journal of Medicinal Chemistry, 2024).

For one test, the target named is T1, rat CTR (Rattus norvegicus, UniProt P32214).
T1 construct: expressed in transfected cells; host or cells: BHK tk-ts 13, transient (FuGENE 6)
T1 sequence (P32214 25-479 isoform P32214-2 limits assumed): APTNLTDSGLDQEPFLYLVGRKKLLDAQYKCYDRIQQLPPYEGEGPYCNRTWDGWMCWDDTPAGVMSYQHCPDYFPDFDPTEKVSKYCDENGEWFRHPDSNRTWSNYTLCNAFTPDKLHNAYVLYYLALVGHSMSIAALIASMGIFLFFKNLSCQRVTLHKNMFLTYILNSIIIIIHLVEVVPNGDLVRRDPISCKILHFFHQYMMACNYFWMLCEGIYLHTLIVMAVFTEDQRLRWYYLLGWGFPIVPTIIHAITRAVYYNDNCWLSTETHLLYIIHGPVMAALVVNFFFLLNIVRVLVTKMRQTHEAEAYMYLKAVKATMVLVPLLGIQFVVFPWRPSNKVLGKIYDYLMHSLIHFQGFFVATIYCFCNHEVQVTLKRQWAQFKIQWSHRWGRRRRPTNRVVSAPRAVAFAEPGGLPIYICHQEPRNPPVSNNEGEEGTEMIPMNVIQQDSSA
The test can be described thus: cAMP FlashPlate assay, rat CTR. The test is classed as cell-based. The conditions noted are these: cAMP (rat receptor assay).

In a further test the test system is rats. The test can be described thus: Acute food intake in rats. The test is classed as in vivo, rat. Particulars: single sc injection of 30 nmol/kg, relative to vehicle, mean ± SEM, n = 5–7 per group.
A further test addresses T2, hCTR (Homo sapiens, UniProt P30988).
T2 sequence (P30988 25-474): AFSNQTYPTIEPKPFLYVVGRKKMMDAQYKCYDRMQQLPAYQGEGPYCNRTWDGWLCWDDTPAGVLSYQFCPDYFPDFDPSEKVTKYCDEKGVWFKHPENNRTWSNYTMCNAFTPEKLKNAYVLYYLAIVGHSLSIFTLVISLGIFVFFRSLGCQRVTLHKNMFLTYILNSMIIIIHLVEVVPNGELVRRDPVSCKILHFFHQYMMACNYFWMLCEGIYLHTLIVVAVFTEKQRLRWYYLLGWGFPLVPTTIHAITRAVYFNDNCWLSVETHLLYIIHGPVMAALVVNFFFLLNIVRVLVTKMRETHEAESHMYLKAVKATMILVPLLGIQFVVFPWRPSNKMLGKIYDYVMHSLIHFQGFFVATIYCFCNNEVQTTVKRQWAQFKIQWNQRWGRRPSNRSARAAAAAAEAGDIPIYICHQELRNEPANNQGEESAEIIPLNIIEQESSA
The test can be described thus: scintillation proximity binding assay, hCTR membranes. The arrangement: expressed in transfected cells; host or cells: BHK tk-ts 13, transient (FuGENE 6); membranes for the SPA, whole cells for the species-specific assays. The procedure: The apparent binding affinities were determined using a scintillation proximity assay with beads from PerkinElmer and cell membranes containing the AMY3R or CTRs. […] Membranes were harvested and membranes were prepared and kept at −80 °C until use. The assay was performed in a 384-well Optiplate (PerkinElmer). Membranes were mixed with scintillation proximity assay beads in a 1:1 ratio. […] Samples were analyzed on a TopCounter (Packard). The IC50 values were calculated using GraphPad Prism. See Supporting Information S7: SAR Screening Assay Methods (Binding Assays (Human and Rat)) for more information.
Binding Assays (Human and Rat). Brief descriptions of the methods used to determine binding affinities for SAR analysis are described below. Curves and IC50 values were plotted and calculated in GraphPad Prism using nonlinear regression (one site binding competition analysis), with pIC50 values […]
values were used to calculate the binding affinity ratios in order to express the selectivity of compounds for the AMY3R versus the CTR.
CTR Binding Assay. The binding assay was performed using scintillation proximity assay (SPA) beads (RPNQ0001) from PerkinElmer and cell membranes containing either the hCTR or rCTR. BHK […]
Membranes were prepared in the following way: the cells were rinsed with PBS and incubated with Versene for approximately 5 min before harvesting. The cells were flushed with PBS and the cell-suspension was centrifuged for 5 min at 1000 rpm. Cells were homogenized (Ultra Turrax) in a buffer […]
containing 20 mM Na-HEPES and 0.1 mM EDTA (pH 7.4, buffer 2). The resulting pellet was re-suspended in buffer 2 and protein concentration was measured (BCA protein assay, Pierce). The homogenate was kept cold during the whole procedure. The membranes were stored at –80 °C until […]
The binding assay was performed in a 384-well Optiplate (PerkinElmer) in a total volume of 40 μL.
Membranes were mixed with SPA beads in a 1:1 ratio. […]
mg/well. Test compounds were dissolved in DMSO and further diluted in assay buffer (50 mM HEPES, pH 7.4, 1 mM CaCl2, 5 mM MgCl2, 0.1% ovalbumin, and 0.02% Tween-20).
Calcitonin (NEX422 PerkinElmer) was dissolved in assay buffer and added to the Optiplate at a final […]
prior to centrifugation (1500 rpm, 10 min). Samples were analyzed on TopCounter (Packard).
In general terms: In a scintillation proximity assay essentially only radioactivity close to the scintillant gives light.

Setting [1] is: Tables S12 and S14, read-out: rCTR pEC50 (converted).
Where [2] appears, read: transiently transfected BHK tk-ts 13 cells, FlashPlate, 30 min room temperature, 2% HSA, read-out: rCTR EC50.
[3] abbreviates: SPA binding assay, Tables S13 and S15.

Like-named read-outs stand apart in the source and are kept apart here.

`CC[C@H](C)[C@H](NC(=O)[C@H](C)NC(=O)CNC(=O)[C@H](Cc1ccccc1)NC(=O)[C@H](CC(N)=O)NC(=O)[C@@H]1CCCN1C(=O)[C@H](CO)NC(=O)[C@H](CO)NC(=O)[C@H](Cc1c[nH]cn1)NC(=O)[C@H](CCCNC(=N)N)NC(=O)[C@H](CC(C)C)NC(=O)[C@H](Cc1ccccc1)NC(=O)[C@H](CC(N)=O)NC(=O)[C@H](C)NC(=O)[C@H](CC(C)C)NC(=O)[C@H](CCCNC(=N)N)NC(=O)[C@H](CCC(N)=O)NC(=O)[C@@H](NC(=O)[C@H](C)NC(=O)[C@@H]1CSSC[C@H](NC(=O)[C@H](CCCCN)NC(=O)CC[C@H](NC(=O)CCCCCCCCCCCCCCCCCCC(=O)O)C(=O)O)C(=O)N[C@@H](CC(N)=O)C(=O)N[C@@H]([C@@H](C)O)C(=O)N[C@@H](C)C(=O)N[C@@H]([C@@H](C)O)C(=O)N1)[C@@H](C)O)C(=O)N1CCC[C@H]1C(=O)N[C@@H](CO)C(=O)N[C@@H](CO)C(=O)N[C@H](C(=O)N[C@@H](CC(N)=O)C(=O)N[C@H](C(=O)NCC(=O)N[C@@H](CO)C(=O)N[C@@H](CCCCN)C(=O)N[C@H](C(=O)N[C@@H](Cc1ccc(O)cc1)C(N)=O)[C@@H](C)O)C(C)C)[C@@H](C)O` [Peptide 13]: on rat CTR (setting [1]), the EC50 was 30.2 nM. The EC50 at rat CTR (setting [2]) came to 30.4 nM. Besides, in the test on rats, the “Acute food intake reduction 0–24 h” value is given as 37 ± 7% and the “Acute food intake reduction 24–48 h” value is recorded as 25 ± 7%. Besides, the “hCTR pIC50” value at hCTR (setting [3]) was 7.13.
On to `CC[C@H](C)[C@H](NC(=O)[C@H](C)NC(=O)CNC(=O)[C@H](Cc1ccccc1)NC(=O)[C@H](CC(N)=O)NC(=O)[C@@H]1CCCN1C(=O)[C@H](CO)NC(=O)[C@H](CO)NC(=O)[C@H](Cc1c[nH]cn1)NC(=O)[C@H](CCCNC(=N)N)NC(=O)[C@H](CC(C)C)NC(=O)[C@H](Cc1ccccc1)NC(=O)[C@H](CC(N)=O)NC(=O)[C@H](C)NC(=O)[C@H](CC(C)C)NC(=O)[C@H](CCCNC(=N)N)NC(=O)[C@H](CCC(N)=O)NC(=O)[C@@H](NC(=O)[C@H](C)NC(=O)[C@@H]1CSSC[C@H](NC(=O)[C@H](CCCCN)NC(=O)COCCOCCNC(=O)COCCOCCNC(=O)CC[C@H](NC(=O)CCCCCCCCCCCCCCCCCCC(=O)O)C(=O)O)C(=O)N[C@@H](CC(N)=O)C(=O)N[C@@H]([C@@H](C)O)C(=O)N[C@@H](C)C(=O)N[C@@H]([C@@H](C)O)C(=O)N1)[C@@H](C)O)C(=O)N1CCC[C@H]1C(=O)N[C@@H](CO)C(=O)N[C@@H](CO)C(=O)N[C@H](C(=O)N[C@@H](CC(N)=O)C(=O)N[C@H](C(=O)NCC(=O)N[C@@H](CO)C(=O)N[C@@H](CC(N)=O)C(=O)N[C@H](C(=O)N[C@@H](Cc1ccc(O)cc1)C(N)=O)[C@@H](C)O)C(C)C)[C@@H](C)O` [Peptide 10], for which, on rat CTR (setting [1]), the EC50 is 141 nM. On rat CTR (setting [2]), the EC50 amounted to 142 nM. Further, in the test with rats, the “Acute food intake reduction 0–24 h” value amounted to 22 ± 5% and the “Acute food intake reduction 24–48 h” value is 1 ± 5%. Besides, the “hCTR pIC50” value at hCTR (setting [3]) is recorded as 6.99.
As for `CC[C@H](C)[C@H](NC(=O)[C@H](C)NC(=O)CNC(=O)[C@H](Cc1ccccc1)NC(=O)[C@H](CC(N)=O)NC(=O)[C@@H]1CCCN1C(=O)[C@H](CO)NC(=O)[C@H](CO)NC(=O)[C@H](Cc1c[nH]cn1)NC(=O)[C@H](CCCNC(=N)N)NC(=O)[C@H](CC(C)C)NC(=O)[C@H](Cc1ccccc1)NC(=O)[C@H](CC(N)=O)NC(=O)[C@H](C)NC(=O)[C@H](CC(C)C)NC(=O)[C@H](CCCNC(=N)N)NC(=O)[C@H](CCC(N)=O)NC(=O)[C@@H](NC(=O)[C@H](C)NC(=O)[C@@H]1CSSC[C@H](NC(=O)[C@@H](N)CCCCNC(=O)CC[C@H](NC(=O)CCCCCCCCCCCCCCCCCCC(=O)O)C(=O)O)C(=O)N[C@@H](CC(N)=O)C(=O)N[C@@H]([C@@H](C)O)C(=O)N[C@@H](C)C(=O)N[C@@H]([C@@H](C)O)C(=O)N1)[C@@H](C)O)C(=O)N1CCC[C@H]1C(=O)N[C@@H](CO)C(=O)N[C@@H](CO)C(=O)N[C@H](C(=O)N[C@@H](CC(N)=O)C(=O)N[C@H](C(=O)NCC(=O)N[C@@H](CO)C(=O)N[C@@H](CCCCN)C(=O)N[C@H](C(=O)N[C@@H](Cc1ccc(O)cc1)C(N)=O)[C@@H](C)O)C(C)C)[C@@H](C)O` [Peptide 14], the EC50 at rat CTR (setting [1]) and at rat CTR (setting [2]) was 37.2 nM in each case. For the same molecule, the “Acute food intake reduction 24–48 h” value in the test with rats was 15 ± 4%. In addition, the IC50 at hCTR (SPA binding assay, Tables S13 and S15, read-out: hCTR pIC50 (converted)) was 42.7 nM; on hCTR (SPA, BHK cell membranes, 125I-Calcitonin 75 pM, 120 min 25 °C, read-out: hCTR IC50), 42.3 nM.
